Reference: patent US10450549B2, “Aryloxyphenoxypropionate tolerance in turfrgass species and use of AAD1 as a selectable marker” (Dow AgroSciences, LLC, priority 2004, dated 2019)

Columns and labels:
[1] = system: AAD1 (v3)-transformed T0 corn events; assay: Tolerance of T0 AAD1 (v3) corn plants (pDAB3404) to postemergence AOPP herbicides; assay type: in vivo
Non-transformed hybrids = assay: Field tolerance to quizalofop and 2,4-D: non-transformed hybrids; assay type: in vivo, corn; settings: for % Injury 3 WAA (0-100 scale): 140 g ae/ha
Description: Two field trials were established at field stations in Hawaii and Indiana. […] The hybrid Hi-II×5XH571 is of the same parentage as the AAD1 (v3) event lines. The hybrid Croplan 585SR is a sethoxydim resistant line.
The experimental design was a split-plot with four replications. The main plot was herbicide treatment and the sub-plot was AAD1 (v3) event or comparison hybrid. Plots were one row by 3.7 meters with approximately twenty-five seeds planted in each row. For AAD1 events, seeds from a different lineage within the event were planted in each replicate.
Glufosinate at 560 g ai/ha was applied to AAD1 (v3) plots at the V2 stage to eliminate non-transformed plants. […] Treatments were applied using backpack broadcast boom equipment delivering 187 L/ha carrier volume at 130-200 kpa pressure.
Quizalofop treated plots were visually assessed for crop injury at one and three weeks after application (WAA) using a 0-100% scale, where 0 equals no injury and 100 equals complete death.

[2] = system: T2 lineages from 3404 transformations; assay: Quizalofop tolerance with respect to AAD1 (v3) expression in T2 3404 lineages; assay type: in vivo, corn
[3] = system: Kentucky bluegrass cv Shamrock callus; assay: Callus selection conditions with quizalofop and haloxyfop: Kentucky bluegrass; assay type: cell-based
Description: Selection conditions for creeping bentgrass cv Crenshaw and Kentucky bluegrass cv Shamrock were established using the grass-active herbicides, quizalofop and haloxyfop. Concentrations of quizalofop and haloxyfop ranged from 0 to 300 nM dissolved in defined callus maintenance media for each species. Callus tissue, derived from mature seeds of each species or cultivar, was used in the experiment. In the case of creeping bentgrass cv Crenshaw, calli maintained on CBG-3 medium were transferred to plates of CBG-3 medium containing either haloxyfop or quizalofop at 0, 50, 100, 150, 200, 250, and 300 nM final concentrations. Visual observations (growth of callus and development of necrosis) were made over a period of 1.5 months. For Kentucky bluegrass cv Shamrock and experimental line A98, calli maintained on KBG-2 were transferred to plates of KBG-2 medium containing 0, 50, 100, 150, 200, 250, and 300 nM final concentrations of the herbicides. Visual observations of callus growth and necrosis were made over a 2.5 month period. […] The calli became necrotic at lower concentrations of quizalofop relative to haloxyfop and the response was more rapid. […]

AAD1 (v3) rice plantlets = assay: Rice tolerance testing with Assure II (sensitivity or resistance 10-14 DAT); assay type: in vivo, Oryza sativa L. japonica cv. Taipei 309; settings: 140 g ae/ha
Description: This concentration corresponds to approximately 140 g ae/ha. Each plant was spayed in a fume hood at a distance of 8-12 inches with 6 full squirts of the sprayer directed so that the entire plant was covered with an equal portion of herbicide. Each squirt delivered approximately 100 μl solution to the plantlet. Once sprayed, plantlets were allowed to dry for one hour before being moved out of the fume hood.

AAD1 (v1) = molecular target: T1, AAD1 (v1) (Sphingobium herbicidovorans, UniProt Q8KSC8); assay: HPLC analysis of herbicide degradation by AAD1 (v1) cell extract; assay type: biochemical
T1 construct: made in house; host or cells: E. coli BL-21 Star (DE3), plasmid pDAB3203

AAD2 (v1) = AAD2 (v1) (Bradyrhizobium diazoefficiens, UniProt Q89UC4); assay: Colorimetric phenol assay of AAD2 (v1) E. coli extract / partially purified enzyme; assay type: biochemical, Bradyrhizobium japonicum

C[C@@H](Oc1ccc(Oc2cnc3cc(Cl)ccc3n2)cc1)C(=O)O [quizalofop]
injury of most AAD1 (v3) T0 lines ([1]; 8× field dose (64× lethal dose), 14 DAT): no visible injury | % Injury 14 DAT ([1]; 8.8 g ae/ha, construct 3404 event 001 clone 017): 0% | % Injury 14 DAT ([1]; 8.8 g ae/ha, construct 3404 event 001 clone 019): 30% | % Injury 14 DAT ([1]; 8.8 g ae/ha, construct 3404 event 022 clone 021): 0% | % Injury 14 DAT ([1]; 8.8 g ae/ha, construct 3404 event 038 clone 017): 0% | % Injury 14 DAT ([1]; 17.5 g ae/ha, construct 3404 event 022 clone 017): 0% | % Injury 14 DAT ([1]; 35 g ae/ha, construct 3404 event 001 clone 020): 0% | % Injury 14 DAT ([1]; 35 g ae/ha, construct 3404 event 017 clone 018): 0% | % Injury 14 DAT ([1]; 35 g ae/ha, construct 3404 event 017 clone 019): 0% | % Injury 14 DAT ([1]; 35 g ae/ha, construct 3404 event 022 clone 022): 0% | % Injury 14 DAT ([1]; 35 g ae/ha, construct 3404 event 033 clone 012): 0% | % Injury 14 DAT ([1]; 35 g ae/ha, construct 3404 event 038 clone 019): 70% | % Injury 14 DAT ([1]; 35 g ae/ha, construct 3404 event 038 clone 020): 80% | % Injury 14 DAT ([1]; 70 g ae/ha, construct 3404 event 017 clone 020): 0% | % Injury 14 DAT ([1]; 70 g ae/ha, construct 3404 event 017 clone 021): 0% | % Injury 14 DAT ([1]; 70 g ae/ha, construct 3404 event 022 clone 023): 0% | % Injury 14 DAT ([1]; 70 g ae/ha, construct 3404 event 033 clone 013): 0% | % Injury 14 DAT ([1]; 70 g ae/ha, construct 3404 event 033 clone 014): 0% | % Injury 14 DAT ([1]; 70 g ae/ha, construct 3404 event 038 clone 021): 80% | % Injury 14 DAT ([1]; 70 g ae/ha, construct 3404 event 038 clone 022): 80% | % Injury 14 DAT ([1]; 140 g ae/ha, construct 3404 event 017 clone 022): 0% | % Injury 14 DAT ([1]; 140 g ae/ha, construct 3404 event 017 clone 023): 30% | % Injury 14 DAT ([1]; 140 g ae/ha, construct 3404 event 033 clone 015): 0% | % Injury 14 DAT ([1]; 280 g ae/ha, construct 3404 event 017 clone 024): 30% | % Injury 14 DAT ([1]; 280 g ae/ha, construct 3404 event 017 clone 025): 20% | % Injury 14 DAT ([1]; 280 g ae/ha, construct 3404 event 033 clone 016): 0% | injury of non-transformed hybrids (Non-transformed hybrids; 70 g ae/ha, field): 80-100% | % Injury 3 WAA (0-100 scale) (Non-transformed hybrids; HI, CROPLAN 585SR): 96% | % Injury 3 WAA (0-100 scale) (Non-transformed hybrids; HI, DK493): 100% | % Injury 3 WAA (0-100 scale) (Non-transformed hybrids; HI, HI-II X 5XH571): 100% | % Injury 3 WAA (0-100 scale) (Non-transformed hybrids; IN, CROPLAN 585SR): 80% | % Injury 3 WAA (0-100 scale) (Non-transformed hybrids; IN, DK493): 100% | % Injury 3 WAA (0-100 scale) (Non-transformed hybrids; IN, HI-II X 5XH571): 100% | highest level tested at which corn expressing AAD1 (v3) is protected from injury [2]: 2,240 g/ha | concentration needed to kill all calli [3]: 200 nM | Rating for sensitivity or resistance (AAD1 (v3) rice plantlets; Control rice plant): Dead | Rating for sensitivity or resistance (AAD1 (v3) rice plantlets; rice plant 63-1A): No injury | Rating for sensitivity or resistance (AAD1 (v3) rice plantlets; rice plant 63-1F): No injury | Rating for sensitivity or resistance (AAD1 (v3) rice plantlets; rice plant 63-4B): No injury | Rating for sensitivity or resistance (AAD1 (v3) rice plantlets; rice plant 63-4D): No injury | Rating for sensitivity or resistance (AAD1 (v3) rice plantlets; rice plant 63-6C): Dead

CC(Oc1ccc(Oc2ncc(C(F)(F)F)cc2Cl)cc1)C(=O)O (stereo not drawn) [haloxyfop]
% Injury 14 DAT ([1]; 8.8 g ae/ha, construct 3404 event 001 clone 016): 0% | % Injury 14 DAT ([1]; 8.8 g ae/ha, construct 3404 event 022 clone 019): 0% | % Injury 14 DAT ([1]; 8.8 g ae/ha, construct 3404 event 038 clone 016): 0% | % Injury 14 DAT ([1]; 17.5 g ae/ha, construct 3404 event 022 clone 016): 0% | % Injury 14 DAT ([1]; 17.5 g ae/ha, construct 3404 event 022 clone 020): 0% | concentration needed to kill all calli [3]: 300 nM

Nc1c(Cl)c(F)nc(OCC(=O)O)c1Cl [Fluroxypyr]
enzyme activity on substrate (HPLC) (AAD1 (v1); AAD1 (v1) cell extract, same conditions as 2,4-D): No enzyme activity was detected

O=C(O)COc1ccc(Cl)cc1Cl [2,4-D, 2,4-dichlorophenoxyacetic acid]
Vmax (A510 units) (AAD2 (v1); AAD2 (pDAB3202), MOPS pH 6.75): 0.86 A510 units | apparent Vmax, AAD2 (v1) (AAD2 (v1); partially purified enzyme): 0.86 A510 units | conversion of 2,4-D to DCP (AAD1 (v1); partially purified proteins, in vitro): 50-100% | 2,4-D degraded to DCP as measured by HPLC (AAD1 (v1); regardless of assay conditions (longer incubations, more enzyme)): 50-75% | epinastic leaning in non-transformed hybrids (Non-transformed hybrids; 1120 g ae/ha, 2 DAA): 11-33% | brace root deformation rating (0-10 scale) (Non-transformed hybrids; 1120 g ae/ha, non-transformed hybrids, 3-4 WAA): 9
